Data reported in patent publication US20180028436A1, “TOPICAL FORMULATION OF HOPS EXTRACT” (priority 2016, published 2018).

Tested on: fibroblast cells of L929 cell line
Test: MTT cytotoxicity assay on fibroblast cells
Assay type: cell-based
Source text: In this example, biocompatibility and toxicity of the topical formulation were studied. At first, cytotoxicity of the hops extract, hops nanoparticles (which were produced according to EXAMPLE 1), and β-cyclodextrin as the carrier were investigated as follows. The cultured fibroblast cells of L929 cell line were exposed to the hops extract, hops nanoparticles, and β-cyclodextrin in three test groups with different concentrations. Three test groups and the control group were studied in a 3-(4,5-dimethylthiazol-2-yl)-2,5-diphenyltetra-zolium bromide (MTT) assay using dimethyl thiazolyl diphenyl tetrazolium salt for evaluating the cell toxicity. FIG. 6A illustrates a MTT plot of the fibroblast cells after about 24 hours of exposing to the hops nanoparticles. Higher absorbance of the MTT dye indicates higher cellular proliferation.

## OC[C@H]1O[C@@H]2O[C@H]3[C@H](O)[C@@H](O)[C@@H](O[C@H]4[C@H](O)[C@@H](O)[C@@H](O[C@H]5[C@H](O)[C@@H](O)[C@@H](O[C@H]6[C@H](O)[C@@H](O)[C@@H](O[C@H]7[C@H](O)[C@@H](O)[C@@H](O[C@H]8[C@H](O)[C@@H](O)[C@@H](O[C@H]1[C@H](O)[C@H]2O)O[C@@H]8CO)O[C@@H]7CO)O[C@@H]6CO)O[C@@H]5CO)O[C@@H]4CO)O[C@@H]3CO [β-cyclodextrin]
L929 fibroblast cells, MTT, 24 hours
  IC50 Value 24 hours: >6000 µg/mL
L929 fibroblast cells, MTT, 72 hours
  IC50 Value 72 hours: >6000 µg/mL
Conclusion from IC50 values of TABLE 3
  cytotoxicity effect: no cytotoxicity effect
